Experimental data as given in ChEMBL document CHEMBL1201862, “PubChem BioAssay data set” (2004).
One block for each compound: values may come before it. Active and inactive are the calls of the source.

Legend:
[1] = molecular target: Aryl hydrocarbon receptor (Homo sapiens, UniProt P35869); assay: Luminescence-based cell-based high throughput dose response assay for activators of the Aryl Hydrocarbon Receptor (AHR). [Related pubchem assays: 2796 (Primary screen (AHR activators in singlicate)), 2845 (Confirmation screen (AHR activators in triplicate)), 434939 (Counterscreen (PXR activators in triplicate)), 2804 (Summary (AHR activators))]; format: ADME
[2] = Glucagon-like peptide 1 release potency, NCI-H716 cell line, dose-response, half-maximal inhibitory concentration (AID 1117344); format: functional, cell-based
[3] = half-maximal inhibitory concentration for glucagon-like peptide-1 release, STC-1 cell line, dose-response (AID 1117345); format: functional, cell-based
[4] = HeLa cell cytotoxicity, dose response, cytotoxicity control, CellTiter-Glo luminescence, dry powder, set 2 (AID 720593); format: functional, cell-based
[5] = HEK293T cell cytotoxicity, dose response, cytotoxicity control, CellTiter-Glo luminescence, dry powder, set 2 (AID 720595); format: functional, cell-based; settings: HEK293
[6] = P. falciparum Dd2 growth inhibitors, dose response, SYBR Green, dry powder samples, set 9 (AID 1159568); format: functional, cell-based
[7] = P. falciparum Dd2 growth inhibitors, dose response, SYBR Green, cherry-picked samples (AID 1159567); format: functional, cell-based
[8] = Plasmodium falciparum Dd2 Sybr green parasite growth Measured in Cell-Based and Microorganism Combination System Using Plate Reader - 2153-01_Inhibitor_Dose_DryPowder_Activity_Set3.; format: functional
[9] = P. falciparum Dd2 growth inhibitors, dose response, SYBR Green, dry powder samples (AID 1159566); format: functional, cell-based;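 note: potency for growth inhibition with lower SYBR green DNA signal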
[10] = HepG2 cell cytotoxicity, dose response, cytotoxicity control, plate reader, dry powder samples (AID 1159569); format: functional, cell-based;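 note: inhibitor potency with signal falling toward the positive control level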
[11] = HepG2 cell cytotoxicity, dose response, cytotoxicity control, cherry-picked samples (AID 1159577); format: functional, cell-based
[12] = P. falciparum 3D7-ScDHODH growth inhibitors, dose response, SYBR Green, dry powder samples (AID 1159570); format: functional, cell-based;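 note: parasite growth measured after 72 hours of compound exposure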
[13] = P. falciparum ATP4 D1247Y mutant growth inhibitors, dose response, NITD609-resistant line, SYBR Green, dry powder (AID 1159571); format: functional, cell-based;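 note: parasites synchronized at ring stage by sorbitol before testing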
[14] = A549 cell cytotoxicity, dose response, cytotoxicity control, plate reader, dry powder, set 7 (AID 743318); format: functional, cell-based
Danio rerio = assay: In Vivo Angiogenesis Dose-Response Confirmation. [Related pubchem assays: 732 (Assay preceding this confirmatory assay.)]; format: functional, organism-based
cells = format: functional, cell-based; settings: INS-1E
[15] = Dose-response inhibition of insulin secretion in a rat insulinoma line at 5 mM glucose (AID 1117331); format: functional, cell-based; settings: INS-1E
[16] = RKO cell viability reduction, dose response, CellTiter-Glo luminescence (AID 1117322); format: functional
[17] = HCT116 cell viability decrease, GSK3B pretreatment – CellTiter-Glo, IC50, dose response (AID 1117339); format: functional; settings: HCT-116
[18] = cytotoxicity toward HT-29 cells – cell-based, CellTiter-Glo luminescence, IC50, dose response (AID 1117330); format: functional
[19] = cytotoxicity toward Colo320 cells – cell-based, CellTiter-Glo luminescence, IC50, dose response (AID 1117334); format: functional; settings: COLO 320
[20] = cytotoxicity toward HCT116 cells – cell-based, CellTiter-Glo luminescence, IC50, dose response (AID 1117332); format: functional; settings: HCT-116
[21] = Concentration-dependent survival of SW480 colon cancer line, luminescence detection with CellTiter-Glo, half-maximal inhibitory concentration (AID 1117338); format: functional
[22] = CellTiter-Glo luminescent dose response of DLD-1 viability loss (AID 1117352); format: functional
[23] = SNU-C1 cell viability reduction, dose response, CellTiter-Glo luminescence (AID 1117323); format: functional, cell-based

Sequence of Aryl hydrocarbon receptor (P35869 whole entry): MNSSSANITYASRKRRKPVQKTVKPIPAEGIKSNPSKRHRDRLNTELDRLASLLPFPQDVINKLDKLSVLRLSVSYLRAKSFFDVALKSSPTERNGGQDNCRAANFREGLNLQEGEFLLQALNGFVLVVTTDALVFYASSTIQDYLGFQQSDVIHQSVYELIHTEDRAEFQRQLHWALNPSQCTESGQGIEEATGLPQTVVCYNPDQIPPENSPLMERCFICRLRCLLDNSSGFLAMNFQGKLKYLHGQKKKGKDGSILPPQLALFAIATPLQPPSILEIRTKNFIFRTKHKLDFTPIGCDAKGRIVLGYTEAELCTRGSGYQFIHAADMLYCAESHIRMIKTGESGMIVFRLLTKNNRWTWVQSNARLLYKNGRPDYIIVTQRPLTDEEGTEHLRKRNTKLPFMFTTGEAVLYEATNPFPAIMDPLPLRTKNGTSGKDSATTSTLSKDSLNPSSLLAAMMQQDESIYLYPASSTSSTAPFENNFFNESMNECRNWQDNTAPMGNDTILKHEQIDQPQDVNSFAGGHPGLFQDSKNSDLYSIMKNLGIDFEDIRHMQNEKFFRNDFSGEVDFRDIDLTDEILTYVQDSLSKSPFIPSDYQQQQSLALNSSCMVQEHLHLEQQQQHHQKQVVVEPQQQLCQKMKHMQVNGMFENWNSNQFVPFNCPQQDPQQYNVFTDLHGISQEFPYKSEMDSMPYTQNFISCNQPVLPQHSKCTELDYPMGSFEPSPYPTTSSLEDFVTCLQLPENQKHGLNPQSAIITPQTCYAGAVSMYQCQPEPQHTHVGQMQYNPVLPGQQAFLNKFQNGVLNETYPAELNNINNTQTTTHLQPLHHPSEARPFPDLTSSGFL

EC50 [1]: 4.22 µM (active)
Compound: CCOCC(=O)Nc1cccc(-c2nc3cccnc3s2)c1C

Compound: CN(C)[C@@H]1C(O)=C(C(=O)NCN2CCCC2)C(=O)[C@@]2(O)C(O)=C3C(=O)c4c(O)cccc4[C@@](C)(O)C3C[C@@H]12 (stereo not given in full)
IC50 [2]: > 40 µM (inactive)
IC50 [3]: > 40 µM (inactive)

Compound: CCCCC(=O)NC(c1ccco1)c1ccc2cccnc2c1O (stereo not given)
AC50 [4]: 28.4 µM (active)
AC50 [5]: 3.78 µM (active)

Compound: CCCNC(=O)N1[C@H](C#N)[C@H](c2ccc(C#Cc3ccc(F)cc3)cc2)[C@@H]1CO
AC50 [6]: 0.0575 µM (active)
AC50 [7]: < 0.3 µM (active)
AC50 [8]: 0.15 µM (active)
AC50 [9]: 0.123 µM (active)
AC50 [10]: 41.4 µM (active)
AC50 [11]: > 39 µM (inactive)
AC50 [12]: 3.48 µM (active)
AC50 [13]: 0.101 µM (active)

Compound: Cc1ccc(C(C)C)c(OCCn2c(=S)[nH]c3cccc(F)c32)c1
AC50 [14]: 30.2 µM (active)

Compound: O=C1C(c2c(O)[nH]c3ccc(F)cc23)=Nc2ccccc21
IC50 (Danio rerio): 2.17 µM (active)

Compound: CC(C)(Cc1c[nH]c2ccccc12)NCC(O)COc1ccccc1C#N (stereo not given) [BUCINDOLOL]
IC50 (cells): > 33.3 µM (inactive)
IC50 [15]: 15 µM (inactive)

Compound: CNC(=O)Oc1cccc2ccccc12 [CARBARIL]
IC50 [16]: > 20 µM (inactive)
IC50 [17]: > 20 µM (inactive)
IC50 [18]: > 20 µM (inactive)
IC50 [19]: > 20 µM (inactive)
IC50 [20]: > 20 µM (inactive)
IC50 [21]: > 20 µM (inactive)
IC50 [22]: > 20 µM (inactive)
IC50 [23]: > 20 µM (inactive)
